# Results: patent US7125883B1, “Integrin receptor ligands” (Abbott GmbH & Co. KG, priority 1999, dated 2006)
# Target: integrin αvβ3 (Homo sapiens, UniProt P05106+P06756)
# Test: Integrin αvβ3 assay (competition with vitronectin for binding to solid-phase integrin αvβ3)
# Details: competition between human vitronectin and test substance for binding to integrin αvβ3 bound to a solid phase; only a ranking in words is given
row,Compound,IC50 values (concentration of the ligand at which 50% of the ligand is displaced)
1,"CCCc1cn(C[C@H](NC(=O)OCc2ccccc2)C(=O)O)c(=O)nc1N1CCC(CNc2ccccn2)CC1.O=C(O)C(F)(F)F [Example I-64, 2-[({1-[1-((2S)-{[(Benzyloxy)carbonyl]amino}-2-carboxy-ethyl)-2-oxo-5-propyl-1,2-dihydropyrimidin-4-yl]-piperidin-4-yl}methyl)amino]pyridinium trifluoroacetate]",best result
2,"O=C(O)C(F)(F)F.O=C(O)CC(Cn1cc(-c2ccccc2)c(NCCC(=O)Nc2ncc[nH]2)nc1=O)NC(=O)OCc1ccccc1 (stereo not shown) [Example I-63, 2-[(3-{[1-(2-{[(Benzyloxy)carbonyl]amino}-3-carboxy-propyl)-2-oxo-5-phenyl-1,2-dihydropyrimidin-4-yl]amino}-propanoyl)amino]-1H-imidazol-1-ium trifluoroacetate]",best result
3,Cc1cn(CC(CC(=O)O)NC(=O)OCc2ccccc2)c(=O)nc1NCc1ccc(CNc2ccccn2)cc1.O=C(O)C(F)(F)F (stereo not shown) [Example I-54],best result
4,"O=C(O)C(F)(F)F.O=C(O)CC(Cn1cc(C2CCOCC2)c(NCCC(=O)Nc2ncc[nH]2)nc1=O)NC(=O)OCc1ccccc1 (stereo not shown) [Example I-61, 2-[(3-{[1-(2-{[(Benzyloxy)carbonyl]amino}-3-carboxy-propyl)-2-oxo-5-tetrahydro-2H-pyran-4-yl-1,2-dihydropyrimidin-4-yl]amino}propanoyl)amino]-1H-imidazol-1-ium trifluoroacetate]",best result
